Series [1] has as its system Pseudomonas aeruginosa NCIB 6749. The experiment in a line: MIC antibacterial action (Use Example D, analogous to A). In kind it is cell-based. Particulars: NCIB6749, 72 h. As for the experimental part:
(§1) A defined Landy Agar was admixed with active compounds according to the invention in concentrations of […]. The MIC was determined after 3 days of storage at 28° C. and 60-70% relative atmospheric humidity. The MIC is the lowest concentration of active compound at which there is no colonization by the microbial species used.
Analogously to Use Example A, the minimum inhibitory concentrations (MIC) of active compounds according to the invention were determined. Both on chemically defined medium and on complex medium, the compounds tested had minimum inhibitory concentrations </=100 ppm against Pseudomonas aeruginosa NCIB 6749: […]

Series [2] concerns Pseudomonas aeroginosa. The experiment in a line: MIC against bacteria on Landy agar (Use Example A). In kind it is cell-based. To be noted: 72 h, 3 days at 28° C., 60-70% relative atmospheric humidity, read-out: Minimum inhibitory concentrations Pseudomonas aeroginosa. The method, then: as §1
In series [3] the test system is Bacillus subtilis. The experiment in a line: MIC against bacteria on Landy agar (Use Example A). In kind it is cell-based. Particulars: 72 h, 3 days at 28° C., 60-70% relative atmospheric humidity, read-out: Minimum inhibitory concentrations Bacillus subtilis. As for the experimental part:
as §1

The test system of series [4] is Aspergillus niger. The experiment in a line: MIC against fungi on malt extract agar (Use Example B). Format: cell-based. Particulars: 504 h, 3 weeks at 28° C., 60-70% relative atmospheric humidity, read-out: Minimum inhibitory concentrations Aspergillus niger. As for the experimental part: (§2) The MIC was determined after 3 weeks of storage at 28° C. and 60-70% relative atmospheric humidity. The MIC is the lowest concentration of active compound at which there is no colonization by the microbial species used.

The subject of series [5] is Penicillium brevicaule. The series is described as above. Format: cell-based. Particulars: 504 h, 3 weeks at 28° C., 60-70% relative atmospheric humidity, read-out: Minimum inhibitory concentrations Penicillium brevicaule. As for the experimental part: as §2
Series [6] concerns Chaetomium globosum. The series is described as above. Format: cell-based. Particulars: 504 h, 3 weeks at 28° C., 60-70% relative atmospheric humidity, read-out: Minimum inhibitory concentrations Chaetomium globosum. As for the experimental part: as §2
The test system of series [7] is Geotrichum candidum. The experiment in a line: MIC antifungal action (Use Example C, analogous to B). Format: cell-based. To be noted: analogously to Use Example B, read-out: minimum inhibitory concentrations (MIC) Geotrichum candidum. As for the experimental part:
(§3) An agar which had been prepared using malt extract was admixed with active compounds according to the invention in concentrations of from 0.1 mg/l to 5000 mg/l. The MIC was determined after 3 weeks of storage at 28° C. and 60-70% relative atmospheric humidity. The MIC is the lowest concentration of active compound at which there is no colonization by the microbial species used. Analogously to Use Example B, the minimum inhibitory concentrations (MIC) of active compounds according to the invention were determined. Against fungi such as Fusarium solani, Geotrichum candidum and Rhodotorula rubra the compounds tested had minimum inhibitory concentrations of <500 ppm: […]

The test system of series [8] is Fusarium solani. The series is described as above. In kind it is cell-based. Particulars: analogously to Use Example B, read-out: minimum inhibitory concentrations (MIC) Fusarium solani. The method, then:
as §3

Series [9] has as its system Rhodotorula rubra. The description is as above. Format: cell-based. To be noted: analogously to Use Example B, read-out: minimum inhibitory concentrations (MIC) Rhodotorula rubra. The method, then: as §3
Where [10] appears, read: chemically defined medium, read-out: MIC values (chem.def. medium).
The mark [11] stands for this setting: complex medium, read-out: MIC values (complex medium).

Consider 35 compounds from patent US20060142359A1, “Cyclopenta[c]isoxazole-3-amines used as protective agents for materials” (priority 2002, published 2006).

The structures appear in SMILES notation. Converted amounts (≈) assume the structure as drawn. Read-outs that look alike come from different tables or passages of the source. A value given as a limit tells only on which side of the number the result lay.

The melting point is the temperature of the solid-liquid transition. In the case of `CNc1onc2c1CCC2` [Example 2, N-methyl-5,6-dihydro-4H-cyclopenta[c]isoxazole-3-amine], the melting point came to 52 °C.
As for `O=C(OCc1ccccc1)N(C(=O)OCc1ccccc1)c1onc2c1CCC2` [Example 40], the MIC in series [1] (setting [10]) and in series [1] (setting [11]) was 20 mg/L (≈ 51 µM) each time.
Compound `O=C(Nc1ccc(Cl)cc1)Nc1onc2c1CCC2` [Example 21] showed a melting point of 225 °C.
Turning to `CCCCNC(=S)Nc1onc2c1CCC2` [Example 6, N-butyl-N′-(5,6-dihydro-4H-cyclopenta[c]isoxazol-3-yl)thiourea], the melting point came out at 93 °C.
With `Cc1ccc(S(=O)(=O)Nc2onc3c2CCC3)cc1` [Example 25], the melting point was 112 °C.
Regarding `S=C(Nc1ccccc1)Nc1onc2c1CCC2` [Example 23], the melting point is 146 °C.
`O=C(Nc1onc2c1CCC2)C(F)(F)F` [Example 14]: the melting point was found to be 118 °C. Besides, in series [2], the MIC is below 100 mg/L. For the same compound, the MIC in [3] was below 40 mg/L. Besides, the MIC in [4] was 100 mg/L (≈ 454 µM). Besides, the MIC in [5] came to 100 mg/L (≈ 454 µM). In addition, the MIC in series [6] was determined as 100 mg/L (≈ 454 µM).
The compound `O=C(Nc1ccccc1)Nc1onc2c1CCC2` [Example 5, N-(5,6-dihydro-4H-cyclopenta[c]isoxazol-3-yl)-N′-phenylurea] had a melting point of 202 °C. In [2], the MIC is below 100 mg/L. In addition, the MIC in [3] was below 40 mg/L. In [4], the MIC was 200 mg/L (≈ 822 µM). In addition, the MIC in series [5] worked out at 100 mg/L (≈ 411 µM). The MIC in series [6] stood at 100 mg/L (≈ 411 µM).
As for `Cc1ccc(/C=N\c2onc3c2CCC3)cc1` [Example 30], the melting point was 238 °C.
Consider `O=C(OCCBr)N(C(=O)OCCBr)c1onc2c1CCC2` [Example 42], for which the MIC in [1] (setting [10]) is 10 mg/L (≈ 23.5 µM); in series [1] (setting [11]), 5 mg/L (≈ 11.7 µM); in [7], 500 mg/L (≈ 1170 µM); in series [8] it was 200 mg/L (≈ 469 µM); in [9] it was 500 mg/L (≈ 1170 µM).
As to `COc1ccc(/C=N\c2onc3c2CCC3)cc1` [Example 31], the melting point was 249 °C.
With `O=S(=O)(Nc1onc2c1CCC2)c1ccccc1` [Example 7, N-(5,6-dihydro-4H-cyclopenta[c]isoxazol-3-yl)benzenesulfonamide], the melting point came to 132 °C. Further, the MIC in [2] was found to be 400 mg/L (≈ 1510 µM). In series [3], the MIC was determined as 100 mg/L (≈ 378 µM).
As for `C(=N/c1onc2c1CCC2)/c1ccccc1` [Example 8, N-(5,6-dihydro-4H-cyclopenta[c]isoxazol-3-yl)-N-(-phenylmethylidene)amine], the melting point turned out to be 166 °C.
`O=C(OCC(Cl)(Cl)Cl)N(C(=O)OCC(Cl)(Cl)Cl)c1onc2c1CCC2` [Example 36]: the MIC in series [1] (setting [10]) is 10 mg/L (≈ 21.1 µM); in [1] (setting [11]), 5 mg/L (≈ 10.5 µM).
In the case of `CC(C)(C)C(=O)Nc1onc2c1CCC2` [Example 3, N-(5,6-dihydro-4H-cyclopenta[c]isoxazol-3-yl)-2,2-dimethylpropanamide], the melting point came to 113 °C.
`Clc1ccc(/C=N\c2onc3c2CCC3)cc1` [Example 29] returned a melting point of 190 °C.
Take `CC(C)S(=O)(=O)Nc1onc2c1CCC2` [Example 24]: the melting point amounted to 91 °C.
Still for that read-out and setting: as for `FC(F)(F)c1ccc(/C=N\c2onc3c2CCC3)cc1` [Example 32], the figure is above 260 °C; as for `Cc1ccc(NC(=O)Nc2onc3c2CCC3)cc1` [Example 20], 218 °C.
Turning to `C=COC(=O)N(C(=O)OC=C)c1onc2c1CCC2` [Example 38], the MIC in [1] (setting [10]) is 50 mg/L (≈ 189 µM); in [1] (setting [11]) it was 20 mg/L (≈ 75.7 µM); in series [7], 100 mg/L (≈ 378 µM); in [8], 50 mg/L (≈ 189 µM); in series [9], 100 mg/L (≈ 378 µM).
Regarding `Fc1ccc(/C=N\c2onc3c2CCC3)cc1` [Example 28], the melting point was above 260 °C.
`CC(C)C(=O)Nc1onc2c1CCC2` [Example 12] registered a melting point of 116 °C.
Turning to `CCCC(=O)N(C(=O)CCC)c1onc2c1CCC2` [Example 15], the MIC is below 100 mg/L in [2]; 100 mg/L (≈ 378 µM) in [3]; above 400 mg/L in series [4]; 200 mg/L (≈ 757 µM) in [5]; 100 mg/L (≈ 378 µM) in series [6].
`O=C(c1ccco1)N(C(=O)c1ccco1)c1onc2c1CCC2` [Example 17] showed a melting point of 150 °C.
For `Nc1onc2c1CCC2` [Example 1, 5,6-dihydro-4H-cyclopenta[c]isoxazole-3-amine], the MIC in [2] is below 100 mg/L; in series [3] it was below 40 mg/L; in series [4], below 100 mg/L; in series [5], below 100 mg/L; in series [6] it was below 100 mg/L.
`C=CCOC(=O)N(C(=O)OCC=C)c1onc2c1CCC2` [Example 43]: the MIC is 20 mg/L (≈ 68.4 µM) in series [1] (setting [10]) and 10 mg/L (≈ 34.2 µM) in [1] (setting [11]).
For `CCCCC/C=N\c1onc2c1CCC2` [Example 27], the melting point came to 125 °C.
For the compound `O=C(Nc1onc2c1CCC2)NC1CCCCC1` [Example 19], the melting point came out at 152 °C. Besides, the MIC in series [2] is 400 mg/L (≈ 1600 µM). Moreover, the MIC in [3] worked out at 100 mg/L (≈ 401 µM).
`Cc1ccc(NC(=O)Nc2onc3c2CCC3)c(C)c1` [Example 22]: the melting point was 230 °C.
For `CC(C)COC(=O)N(C(=O)OCC(C)C)c1onc2c1CCC2` [Example 37], the MIC in series [1] (setting [10]) was found to be 10 mg/L (≈ 30.8 µM); in series [1] (setting [11]), 5 mg/L (≈ 15.4 µM).
The compound `C(=N/c1onc2c1CCC2)/c1ccccn1` [Example 33] showed a melting point of 167 °C.
In the case of `O=C(OCCCl)N(C(=O)OCCCl)c1onc2c1CCC2` [Example 41], the MIC in series [1] (setting [10]) was determined as 10 mg/L (≈ 29.7 µM); in [1] (setting [11]), 5 mg/L (≈ 14.8 µM); in series [7], 500 mg/L (≈ 1480 µM); in series [8], 200 mg/L (≈ 593 µM); in [9], 200 mg/L (≈ 593 µM).
`C=C(C)OC(=O)N(C(=O)OC(=C)C)c1onc2c1CCC2` [Example 35]: the MIC in series [1] (setting [10]) and in series [1] (setting [11]) was 10 mg/L (≈ 34.2 µM) throughout.
With `CCCCC(CC)COC(=O)N(C(=O)OCC(CC)CCCC)c1onc2c1CCC2` (stereo not drawn) [Example 34], the values for the MIC in [1] (setting [10]) and in [1] (setting [11]) were 100 mg/L (≈ 229 µM) and 50 mg/L (≈ 115 µM), respectively.
The compound `CC(C)CC(=O)N(C(=O)CC(C)C)c1onc2c1CCC2` [Example 16] showed a melting point of 35 °C.
